Source: patent US20080096906A1, “AMINOMETHYL-2-IMIDAZOLES” (priority 2006, published 2008)

What follows are molecules tested against TAAR1 (Mus musculus, UniProt Q923Y8) (assay: Radioligand binding to TAAR1 on membranes of stably transfected HEK293 cells). Conditions: not given.
Sequence of TAAR1 (Q923Y8 whole entry): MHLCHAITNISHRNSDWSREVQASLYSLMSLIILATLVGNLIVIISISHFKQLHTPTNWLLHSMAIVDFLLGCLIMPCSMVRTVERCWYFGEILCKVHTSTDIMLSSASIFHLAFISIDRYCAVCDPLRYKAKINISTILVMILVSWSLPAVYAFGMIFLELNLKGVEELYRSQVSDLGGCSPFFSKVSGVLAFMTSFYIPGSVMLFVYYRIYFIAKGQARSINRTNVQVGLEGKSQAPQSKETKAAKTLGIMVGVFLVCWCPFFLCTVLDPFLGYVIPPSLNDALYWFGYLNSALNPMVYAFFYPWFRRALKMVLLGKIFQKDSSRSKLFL

SMILES	Ki [µM]
CC(C)N(Cc1ncc[nH]1)c1cccc(Oc2cccnc2)c1 [Example 43, (1H-Imidazol-2-ylmethyl)-isopropyl-[3-(pyridin-3-yloxy)-phenyl]-amine]	0.025
CC(C)N(Cc1ncc[nH]1)c1cccc(-c2ccccc2)c1 [Example 46, Biphenyl-3-yl-(1H-imidazol-2-ylmethyl)-isopropyl-amine]	0.077
Brc1cccc(NCc2ncc[nH]2)c1 [Example 71, (3-Bromo-phenyl)-(1H-imidazol-2-ylmethyl)-amine]	0.0995
CC(C)N(Cc1ncc[nH]1)c1cccc(OCc2ccccc2)c1 [Example 41, (3-Benzyloxy-phenyl)-(1H-imidazol-2-ylmethyl)-isopropyl-amine]	0.021
CCN(Cc1ncc[nH]1)c1cccc(OCc2ccccc2)c1 [Example 66, (3-Benzyloxy-phenyl)-ethyl-(1H-imidazol-2-ylmethyl)-amine]	0.0263
CCN(Cc1ncc[nH]1)c1cccc(Oc2ccccc2)c1 [Example 65, Ethyl-(1H-imidazol-2-ylmethyl)-(3-phenoxy-phenyl)-amine]	0.0111
CCN(Cc1ncc[nH]1)c1cccc(F)c1 [Example 12, Ethyl-(3-fluoro-phenyl)-(1H-imidazol-2-ylmethyl)-amine]	0.051
COc1cccc(N(C)Cc2ncc[nH]2)c1 [Example 6, (1H-Imidazol-2-ylmethyl)-(3-methoxy-phenyl)-methyl-amine]	0.073
CC(C)N(Cc1ncc[nH]1)c1cccc(Oc2ccc(Cl)cc2)c1 [Example 51, [3-(4-Chloro-phenoxy)-phenyl]-(1H-imidazol-2-ylmethyl)-isopropyl-amine]	0.082
CCN(Cc1ncc[nH]1)c1ccc(Cl)c(Cl)c1 [Example 68, (3,4-Dichloro-phenyl)-ethyl-(1H-imidazol-2-ylmethyl)-amine]	0.0331
CCN(Cc1ncc[nH]1)c1cccc(Cl)c1 [Example 30, (3-Chloro-phenyl)-ethyl-(1H-imidazol-2-ylmethyl)-amine]	0.036
Clc1ccc(NCc2ncc[nH]2)cc1Cl [Example K8, (3,4-dichloro-phenyl)-(1H-imidazol-2-ylmethyl)-amine, reference compound]	0.055
CN(Cc1ncc[nH]1)c1cccc(Cl)c1 [Example 2, (3-Chloro-phenyl)-(1H-imidazol-2-ylmethyl)-methyl-amine]	0.03
CC(C)N(Cc1ncc[nH]1)c1ccc(F)cc1 [Example 10, (4-Fluoro-phenyl)-(1H-imidazol-2-ylmethyl)-isopropyl-amine]	0.094
c1ccc(Oc2cccc(NCc3ncc[nH]3)c2)cc1 [Example 61, (1H-Imidazol-2-ylmethyl)-(3-phenoxy-phenyl)-amine]	0.0261
Fc1ccc(NCc2ncc[nH]2)cc1Cl [Example 74, (3-Chloro-4-fluoro-phenyl)-(1H-imidazol-2-ylmethyl)-amine]	0.0839
Fc1ccc(NCc2ncc[nH]2)cc1F [Example 73, (3,4-Difluoro-phenyl)-(1H-imidazol-2-ylmethyl)-amine]	0.0708
c1ccc(COc2cccc(NCc3ncc[nH]3)c2)cc1 [Example 62, (3-Benzyloxy-phenyl)-(1H-imidazol-2-ylmethyl)-amine]	0.0028
CC(C)N(Cc1ncc[nH]1)c1cccc(Cc2ccccc2)c1 [Example 45, (3-Benzyl-phenyl)-(1H-imidazol-2-ylmethyl)-isopropyl-amine]	0.002
CN(Cc1ncc[nH]1)c1ccc(Cl)cc1 [Example 5, (4-Chloro-phenyl)-(1H-imidazol-2-ylmethyl)-methyl-amine]	0.081
COc1cc(NCc2ncc[nH]2)ccc1Cl [Example 64, (4-Chloro-3-methoxy-phenyl)-(1H-imidazol-2-ylmethyl)-amine]	0.0259
Cc1cccc(N(Cc2ncc[nH]2)C(C)C)c1 [Example 39, (1H-Imidazol-2-ylmethyl)-isopropyl-m-tolyl-amine]	0.089
CC(C)N(Cc1ncc[nH]1)c1cc(Cl)cc(Cl)c1 [Example 37]	0.065
COCCN(Cc1ncc[nH]1)c1ccccc1 [Example 21, (1H-Imidazol-2-ylmethyl)-(2-methoxy-ethyl)-phenyl-amine]	0.082

Same assay, conditions: read-out: calculated Kd value of the radioligand; radioligand used at a concentration equal to its Kd; species not stated

SMILES	Kd [µM]
c1ccc2c(c1)CCCC2C1=NCCN1 (racemic) [[^3H]-rac-2-(1,2,3,4-tetrahydro-1-naphthyl)-2-imidazoline, reference compound]	0.06
